Patent US20220324835A1 (Nurix Therapeutics, Inc., priority 2018, published 2022)

Tests used:
T-cells = experiment: In vivo activity: CD25 expression on CD4+ or CD8+ T-cells of mice stimulated with anti-CD3 antibody; details: 2 μg anti-CD3 antibody, 24 hours
Method: (§1) A method of determining the pharmacodynamic profile of Cbl-b inhibitors was performed by dosing strains of mice with competent immune systems such as C57BL/6 or BALB/c with a Cbl-b inhibitor. The Cbl-b inhibitor was dissolved in a suitable formulation and administered by one of various routes such as intravenous (IV), intraperitoneal (IP), subcutaneous (SC), or oral (PO), at a suitable dose level and frequency (e.g. twice per day BID or thrice per day TID) as informed by prior pharmacokinetic and tolerability studies. Following administration of the Cbl-b inhibitor, T-cells and indirectly other immune cells (e.g. via cytokine production) were stimulated in vivo by administration of an anti-CD3 antibody or antigen-binding fragment thereof in PBS at defined amounts such as 2 μg or 10 μg per animal by routes such as IV or IP (See Hirsh et al., J. Immunol., 1989; Ferran, et al., Eur. J. Immunol., 1990). Additional study control arms included groups of mice treated with a vehicle formulation alone (i.e., formulation without the Cbl-b inhibitor and anti-CD3 antibody), a formulation containing the Cbl-b inhibitor alone, a formulation containing the anti-CD3 antibody alone, PBS alone, or combinations of these agents. The level of immune activation was then assessed by analysis of plasma cytokine levels and/or expression of activation markers on immune cells (e.g. T-cells). Blood or lymphoid organs (e.g. spleen) were collected at defined time points (e.g. 8 hours or 24 hours). Blood samples were processed to collect plasma for determination of cytokine levels using standard methods known in the art. Cytokines measured included IL-2, IFNγ, and TNFα. Additional blood samples and lymphoid tissues were processed for flow cytometric analysis of immune cells (e.g. T-cells) using standard methods to determine expression of cell type-specific markers and activation markers such as CD25 and/or CD69. Augmentation of immune stimulation by Cbl-b inhibitor administration was assessed by comparing the relative concentrations of cytokines in plasma, or the expression levels of activation markers on immune cells between appropriate groups (e.g. mice treated with Cbl-b inhibitor and 2 μg anti-CD3 antibody versus mice treated with vehicle and 2 μg anti-CD3 antibody).
(§2) Cbl-b inhibitors were tested to determine their ability to induce or enhance the level of cytokines (e.g. IL-2, IFNγ, and TNFα) in blood obtained from treated mice stimulated with an anti-CD3 antibody, which is indicative of modulation of the immune response. Cbl-b inhibitors were also tested to determine their ability to induce or enhance the expression of cell surface markers on T-cells (e.g. CD25 and/or CD69) isolated from treated mice stimulated with an anti-CD3 antibody, which is indicative of modulation of the immune response.
(§3) Readouts were reported as fold change over baseline. The fold change was calculated from the mean value of mice treated with Cbl-b inhibitor and 2 μg anti-CD3 antibody, with the baseline defined as the mean value of mice treated with vehicle and 2 μg anti-CD3 antibody. Increases in the percentage of cells with surface expression of CD25 on CD4+ T-cells or CD8+ T-cells greater than 1.5-fold over baseline at 24 hours were considered a positive response. Increases in the plasma concentration of IL-2, IFNγ, and TNFα greater than 1.5-fold over baseline at 8 hours post-stimulation were also considered a positive response (Table 8). Fold changes were ranked into bins according to their readouts as follows: A indicates >2.50, B indicates 2.01-2.50, C indicates 1.51-2.00, D indicates 1.00-1.50, and E indicates <1.00.

[1] = tested on: IL-2, IFNγ, and TNFα in plasma; experiment: In vivo activity: plasma cytokine levels (IL-2, IFNγ, TNFα) in mice stimulated with anti-CD3 antibody; details: 2 μg anti-CD3 antibody, 8 hours post-stimulation
Method: as §1, §2, §3

primary human B cells = experiment: B cell activation assay (CD69 on anti-IgM stimulated B cells); type: cell-based; details: AUC of dose response curve (10 μM to 1 nM) of CD69 MFI normalized to DMSO control
Method: Peripheral blood mononuclear cells (PBMC) were obtained either: 1) by using Ficoll-Paque™ (GE Healthcare) for separation of peripheral blood hematopoietic cells from buffy coats of healthy human donors; or 2) directly from LeukoPak donations. Human primary B cells were isolated from the PBMCs utilizing negative selection with commercial kits following the manufacturer's protocol (StemCells Catalog #17954) to yield >95% CD20+ cells assessed by flow cytometry. Primary human B cells were plated at 0.7-1×10^5 per well in a 96-well plate with Cbl-b inhibitors over a dose ranging from 10 μM to 1 nM and incubated at 37° C. 5% CO2, with a final DMSO concentration of <0.5%. Cells were stimulated with anti-IgM for 20 hours at 37° C. 5% CO2. Surface activation markers on mature CD20^+ IgD^+ B cells were monitored by FACS using an anti-CD69 antibody (BD Biosciences).
Cbl-b inhibitors were tested to determine their ability to induce or enhance surface expression of cell surface markers on B cells (e.g., CD69), which is indicative of B cell activation.
Readouts were reported as area under curve (AUC) of the dose response curve of CD69 mean fluorescence intensity (MFI) normalized to the DMSO control. Baseline for this study was the measurement obtained from primary human B cells treated with DMSO in the presence of 2.5 μg/mL of anti-IgM-F(ab′)2. […] Compounds were ranked into bins according to their readouts as follows: A indicates ≤0.5, B indicates 0.5-1.00, C indicates 1.01-1.50, and D indicates ≥1.51.

Cbl-b [2] = target: T1, Cbl-b (Homo sapiens, UniProt Q13191); experiment: Cbl-b inhibition assay (Cbl-b activity assay, FRET, Biological Example 1; 100 mM NaCl, 60 nM Src kinase); type: biochemical; details: upper bound stated in text lists; read-out: IC50 values in the Cbl-b inhibition assay of Biological Example 1
In short: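 N-terminally biotinylated Avi-tagged Cbl-b was mixed with Src kinase, UbcH5B covalently conjugated to Bodipy-fluorescein ubiquitin, and streptavidin-terbium. Src phosphorylation lets Cbl-b bind UbcH5B-Ub, giving terbium-fluorescein FRET; inhibition is read as loss of FRET signal.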

Cbl-b [3] = target: T1, Cbl-b; experiment: Cbl-b activity assay (Cbl-b inhibition assay), TR-FRET of Cbl-b interaction with UbcH5B-Ub; type: biochemical; details: assay buffer with 100 mM NaCl, 60 nM Src kinase; read-out: Cbl-b activity IC50
In short: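 UbcH5B (C85K) conjugated to N-terminally Bodipy-Fluorescein-labeled ubiquitin served as the fluorescent partner. After compound preincubation, Src kinase (60 nM) with 1 mM ATP and 5 mM MgCl2 (final) was added for 1.5 h, followed by a further 1 h incubation. Some values were obtained with 50 mM NaCl and 30 nM Src.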

Cbl-b (residues 36-427) = Cbl-b (residues 36-427) (Homo sapiens, UniProt Q13191); experiment: Cbl-b binding assay (SPR, Biacore T200); details: 20° C., 1:1 binding model
In short: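 Steps: capture protein on NeutrAvidin surface; inject compound dilutions (8 or 10 points from 100 or 50 μM) 50 s; allow 90-180 s dissociation; regenerate 20 s with 0.3 M NaCl. Runs at 20° C in HEPES pH 7.5/100 mM NaCl/2% DMSO; 1:1 fitting.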

T1 sequence (Q13191 36-427): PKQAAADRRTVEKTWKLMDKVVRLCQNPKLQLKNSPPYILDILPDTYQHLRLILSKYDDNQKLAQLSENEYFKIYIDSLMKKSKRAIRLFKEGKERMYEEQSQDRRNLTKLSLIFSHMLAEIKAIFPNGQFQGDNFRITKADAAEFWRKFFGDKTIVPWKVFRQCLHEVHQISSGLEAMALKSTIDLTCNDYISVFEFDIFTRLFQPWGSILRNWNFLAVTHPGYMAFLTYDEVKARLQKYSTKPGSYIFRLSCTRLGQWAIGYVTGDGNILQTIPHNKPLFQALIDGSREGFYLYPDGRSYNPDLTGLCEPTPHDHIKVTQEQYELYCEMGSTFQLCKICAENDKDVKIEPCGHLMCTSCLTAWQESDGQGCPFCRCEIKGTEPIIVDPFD
Sequence of Cbl-b (residues 36-427) (Q13191 36-427): as above

C[C@H](Sc1nncn1C)c1cccc(NC(=O)c2cccc(C(F)(F)F)n2)c1 [Compound 57a, (S)-N-(3-(1-((4-methyl-4H-1,2,4-triazol-3-yl)thio)ethyl)phenyl)-6-(trifluoromethyl)picolinamide]
CD4+ T-cell % CD25+ (T-cells; 90 mpk IP BID): D (D indicates 1.00-1.50)
CD8+ T-cell % CD25+ (T-cells; 90 mpk IP BID): E (E indicates <1.00)
CD4+ T-cell % CD25+ (T-cells; 90 mpk IP TID): D (D indicates 1.00-1.50)
CD8+ T-cell % CD25+ (T-cells; 90 mpk IP TID): C (C indicates 1.51-2.00)
IFNγ plasma concentration ([1]; 90 mpk IP BID): D (D indicates 1.00-1.50)
IL-2 plasma concentration ([1]; 90 mpk IP BID): A (A indicates >2.50)
TNFα plasma concentration ([1]; 90 mpk IP BID): A (A indicates >2.50)
IFNγ plasma concentration ([1]; 90 mpk IP TID): B (B indicates 2.01-2.50)
IL-2 plasma concentration ([1]; 90 mpk IP TID): A (A indicates >2.50)
TNFα plasma concentration ([1]; 90 mpk IP TID): A (A indicates >2.50)
CD69 MFI AUC (primary human B cells): B (B indicates 0.5-1.00)

C[C@@H](Sc1nncn1C)c1cccc(NC(=O)c2cccc(C(F)(F)F)n2)c1 [Compound 57b, (R)-N-(3-(1-((4-methyl-4H-1,2,4-triazol-3-yl)thio)ethyl)phenyl)-6-(trifluoromethyl)picolinamide]
CD4+ T-cell % CD25+ (T-cells; 90 mpk IP BID): C (C indicates 1.51-2.00)
CD8+ T-cell % CD25+ (T-cells; 90 mpk IP BID): E (E indicates <1.00)
CD4+ T-cell % CD25+ (T-cells; 90 mpk IP TID): E (E indicates <1.00)
CD8+ T-cell % CD25+ (T-cells; 90 mpk IP TID): D (D indicates 1.00-1.50)
IFNγ plasma concentration ([1]; 90 mpk IP BID): E (E indicates <1.00)
IL-2 plasma concentration ([1]; 90 mpk IP BID): E (E indicates <1.00)
TNFα plasma concentration ([1]; 90 mpk IP BID): D (D indicates 1.00-1.50)
IFNγ plasma concentration ([1]; 90 mpk IP TID): E (E indicates <1.00)
IL-2 plasma concentration ([1]; 90 mpk IP TID): E (E indicates <1.00)
TNFα plasma concentration ([1]; 90 mpk IP TID): E (E indicates <1.00)
CD69 MFI AUC (primary human B cells): A (A indicates ≤0.5)

C[C@@H](Cc1nncn1C)c1cccc(N2Cc3c(cccc3C(F)(F)F)C2=O)c1 [Compound 255b]
IC50 (Cbl-b [2]): ≤ 10 µM
IC50 (Cbl-b [3]): 1 to 3 µM
Kd (Cbl-b (residues 36-427)): 3 to 10 µM
CD4+ T-cell % CD25+ (T-cells; 135 mpk PO BID): E (E indicates <1.00)
CD8+ T-cell % CD25+ (T-cells; 135 mpk PO BID): E (E indicates <1.00)
CD4+ T-cell % CD25+ (T-cells; 180 mpk PO BID): E (E indicates <1.00)
CD8+ T-cell % CD25+ (T-cells; 180 mpk PO BID): E (E indicates <1.00)

Cn1cnnc1CC1(c2cccc(N3Cc4c(cc(CN5CCC(F)CC5)cc4C(F)(F)F)C3=O)c2)COC1 [Compound 489, 6-[(4-fluoropiperidin-1-yl)methyl]-2-(3-{3-[(4-methyl-1,2,4-triazol-3-yl)methyl]oxetan-3-yl}phenyl)-4-(trifluoromethyl)-3H-isoindol-1-one]
IC50 (Cbl-b [2]): ≤ 0.1 µM
IC50 (Cbl-b [3]): < 0.1 µM
CD4+ T-cell % CD25+ (T-cells; 135 mpk PO BID): C (C indicates 1.51-2.00)
CD8+ T-cell % CD25+ (T-cells; 135 mpk PO BID): D (D indicates 1.00-1.50)

C[C@@H](c1cc2c(c(C(F)(F)F)c1)CN(c1cccc(C3(Cc4nncn4C)COC3)c1)C2=O)N1CCC(F)CC1 [Example 622a, (S)-6-(1-(4-fluoropiperidin-1-yl)ethyl)-2-(3-(3-((4-methyl-4H-1,2,4-triazol-3-yl)methyl)oxetan-3-yl)phenyl)-4-(trifluoromethyl)isoindolin-1-one]
CD4+ T-cell % CD25+ (T-cells; 135 mpk PO BID): B (B indicates 2.01-2.50)
CD8+ T-cell % CD25+ (T-cells; 135 mpk PO BID): D (D indicates 1.00-1.50)

C[C@H](c1cc2c(c(C(F)(F)F)c1)CN(c1cccc(C3(Cc4nncn4C)COC3)c1)C2=O)N1CCC(F)CC1 [Example 622b, (R)-6-(1-(4-fluoropiperidin-1-yl)ethyl)-2-(3-(3-((4-methyl-4H-1,2,4-triazol-3-yl)methyl)oxetan-3-yl)phenyl)-4-(trifluoromethyl)isoindolin-1-one]
CD4+ T-cell % CD25+ (T-cells; 135 mpk PO BID): B (B indicates 2.01-2.50)
CD8+ T-cell % CD25+ (T-cells; 135 mpk PO BID): D (D indicates 1.00-1.50)
